In patent publication US20250230171A1 (MOMA Therapeutics, Inc., priority 2023, published 2025):

These molecules were tested against biotinylated Avi-POLθ[2-894] (Homo sapiens (Human), UniProt O75417) (assay: POLθ ATPase assay (ADP-Glo)). Conditions: POLθ ATPase, ADP-Glo; n=2; read-out: Biochemical ATPase ADPGlo IC50.
Protocol: In some embodiments, the ATPase assay a compound of the present disclosure is combined with biotinylated Avi-POLθ[2-894], a 50 nucleotide poly-thymine repeat single-stranded DNA, and ATP in buffer. In some embodiments, the mixture is incubated and ADP-Glo Reagent added, followed by a subsequent incubation. In some embodiments, a Kinase Detection Reagent may be added, followed by a third incubation. In some embodiments, the activity is measured via luminescence signal (e.g., measured with the EnVision multimode plate reader). POLθ-mediated ATP hydrolysis was measured using the ADP-Glo Kinase Assay (Promega Corporation, Madison, WI). Reactions were performed in white 384-well small-volume microplates (Greiner Bio-One, Frickenhausen, Germany) using a total volume of 15 μL. The ATPase reaction consisted of 1 nM biotinylated Avi-POLθ[2-894], 5 nM of a 50 nucleotide poly-thymine repeat single-stranded DNA (PolyT(50) ssDNA), and 100 μM ATP in 5 μL of assay buffer (50 mM Tris, pH 7.5, 80 mM KCl, 10 MgCl2, 1 mM DTT, 5% glycerol, 0.01% BSA, 0.01% Tween-20). Inhibition of POLΘATPase activity was determined by preparing 11-point serial dilutions of the test compounds in 100% DMSO, then transferring 30 nL of the compounds into the ATPase reaction using an Echo acoustic liquid handler (Beckman Coulter, Brea, CA). DMSO-treated wells containing either all of the reaction components (1 nM biotinylated Avi-POLθ[2-894], 5 nM PolyT(50) ssDNA, 100 μM ATP) or with assay buffer substituted for the biotinylated Avi-POLθ[2-894](0 nM biotinylated Avi-POLθ[2-894], 5 nM PolyT(50) ssDNA, 100 μM ATP) were used to define the maximum and minimum response in the assay. Following a one-hour incubation at ambient temperature, 5 μL of ADP-Glo Reagent was added to the ATPase reaction, and this mixture was allowed to incubate at ambient temperature for an additional hour. Lastly, 5 μL of Kinase Detection Reagent was added, followed by a third one-hour incubation at ambient temperature. […] Luminescence signal was measured using the EnVision multimode plate reader (Perkin Elmer. Waltham. MA). […] Non-linear regression analysis using the four-parameter logistic equation was conducted on the percent activity values of the compound dose-responses, yielding the AC50 value for each compound. Genedata Screener (Genedata. Basel, Switzerland) was used for the data analysis.

Chain of biotinylated Avi-POLθ[2-894] (O75417 2-894): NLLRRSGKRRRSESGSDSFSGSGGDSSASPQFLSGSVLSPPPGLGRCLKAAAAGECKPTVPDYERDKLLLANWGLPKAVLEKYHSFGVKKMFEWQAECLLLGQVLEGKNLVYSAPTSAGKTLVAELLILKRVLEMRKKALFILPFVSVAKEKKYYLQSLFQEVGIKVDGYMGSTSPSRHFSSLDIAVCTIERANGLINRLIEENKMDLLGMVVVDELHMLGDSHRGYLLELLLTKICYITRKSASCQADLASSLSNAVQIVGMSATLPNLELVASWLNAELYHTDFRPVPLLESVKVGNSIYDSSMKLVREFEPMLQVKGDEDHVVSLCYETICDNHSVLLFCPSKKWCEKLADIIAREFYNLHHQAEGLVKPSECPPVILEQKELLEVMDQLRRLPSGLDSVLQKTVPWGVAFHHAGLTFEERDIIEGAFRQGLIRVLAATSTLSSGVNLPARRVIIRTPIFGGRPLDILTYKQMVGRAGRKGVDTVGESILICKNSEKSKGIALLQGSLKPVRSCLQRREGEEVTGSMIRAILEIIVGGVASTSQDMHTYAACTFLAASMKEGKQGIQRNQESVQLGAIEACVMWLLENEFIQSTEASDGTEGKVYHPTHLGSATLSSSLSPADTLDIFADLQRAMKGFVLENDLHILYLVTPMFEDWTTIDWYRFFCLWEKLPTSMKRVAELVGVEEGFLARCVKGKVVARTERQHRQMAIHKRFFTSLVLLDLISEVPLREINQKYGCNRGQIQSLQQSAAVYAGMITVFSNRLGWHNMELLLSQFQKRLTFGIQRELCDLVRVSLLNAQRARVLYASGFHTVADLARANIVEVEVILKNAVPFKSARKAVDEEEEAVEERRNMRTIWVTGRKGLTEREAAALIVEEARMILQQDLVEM

SMILES	IC50 [nM]
COc1cnc(Cl)cc1-c1cc(C)ncc1C(=O)Nc1nc2c(s1)CN(C(=O)c1ccc(Cl)c(C(F)F)c1)C2	1 to 15
COc1ccc(C#N)cc1-c1cc(C)ncc1C(=O)Nc1nc2c(s1)CN(C(=O)c1ccc(F)c(C(F)F)c1)C2	1 to 15
COc1cnc(Cl)cc1-c1cc(C)ncc1C(=O)Nc1nc2c(s1)CN(C(=O)c1cccc3cncn13)C2	1 to 15
COc1cnc(C(=O)N2Cc3nc(NC(=O)c4cnc(C)cc4-c4cc(Cl)ncc4OC)sc3C2)nc1	1 to 15
COc1cnc(Cl)cc1-c1cc(C)ncc1C(=O)Nc1nc2c(s1)CN(C(=O)c1nccs1)C2	1 to 15
COc1ccc(C#N)cc1-c1cc(C)ncc1C(=O)Nc1nc2c(s1)CN(C(=O)c1ccc(Cl)c(C(F)F)c1)C2	1 to 15
COc1cnc(Cl)cc1-c1cc(C)ncc1C(=O)Nc1nc2c(s1)CN(C(=O)c1ccncn1)C2	1 to 15
COc1cnc(Cl)cc1-c1cc(C)ncc1C(=O)Nc1nc2c(s1)CN(C(=O)c1cccc(OC(F)(F)F)n1)C2	1 to 15
COc1cnc(Cl)cc1-c1cc(C)ncc1C(=O)Nc1nc2c(s1)CN(C(=O)c1cncc(C(F)(F)F)n1)C2	1 to 15
COc1cnc(Cl)cc1-c1cc(C)ncc1C(=O)Nc1nc2c(s1)CN(C(=O)c1cnc(OC(F)F)cn1)C2	1 to 15
COc1cnc(Cl)cc1-c1cc(C)ncc1C(=O)Nc1nc2c(s1)CN(C(=O)c1ncncc1Cl)C2	1 to 15
COc1cc(Cl)c(C(=O)N2Cc3nc(NC(=O)c4cnc(C)cc4-c4cc(Cl)ncc4OC)sc3C2)nn1	1 to 15
COc1cnc(Cl)cc1-c1cc(C)ncc1C(=O)Nc1nc2c(s1)CN(C(=O)c1cncc(C)n1)C2	1 to 15
COc1cnc(Cl)cc1-c1cc(C)ncc1C(=O)Nc1nc2c(s1)CN(C(=O)c1nc(C(F)(F)F)co1)C2	1 to 15
COc1cnc(Cl)cc1-c1cc(C)ncc1C(=O)Nc1nc2c(s1)CN(C(=O)c1ncc(C)nc1C)C2	1 to 15
COc1cnc(Cl)cc1-c1cc(C)ncc1C(=O)Nc1nc2c(s1)CN(C(=O)c1ncc(C)n1C)C2	1 to 15
COc1cnnc(C(=O)N2Cc3nc(NC(=O)c4cnc(C)cc4-c4cc(Cl)ncc4OC)sc3C2)c1	15 to 50
COc1cnc(Cl)cc1-c1cc(C)ncc1C(=O)Nc1nc2c(s1)CN(C(=O)C1CCCC(OC(F)F)C1)C2 (centres unmarked)	150 to 900
COc1cnc(Cl)cc1-c1cc(C)ncc1C(=O)Nc1nc2c(s1)C[C@H](C(=O)N1CC(O)C1)CC2	50 to 150
COc1cnc(Cl)cc1-c1cc(C)ncc1C(=O)Nc1nc2c(s1)C[C@@H](C(=O)N[C@H]1CC[C@H]1O)CC2	150 to 900
COc1cnc(Cl)cc1-c1cc(C)ncc1C(=O)Nc1nc2c(s1)C[C@H](C(=O)N[C@H]1CC[C@H]1O)CC2	150 to 900
COc1cnc(Cl)cc1-c1cc(C)ncc1C(=O)Nc1nc2c(s1)C[C@@H](C(=O)N[C@H]1CC[C@@H]1O)CC2	150 to 900
COc1cnc(Cl)cc1-c1cc(C)ncc1C(=O)Nc1nc2c(s1)C[C@H](C(=O)N[C@H]1CC[C@@H]1O)CC2	150 to 900
COc1cnc(Cl)cc1-c1cc(C)ncc1C(=O)Nc1nc2c(s1)C[C@H](C(=O)N[C@@H]1CC[C@@H]1O)CC2	150 to 900

Same assay, conditions: n=2; read-out: Biochemical ATPase ADPGlo IC50

SMILES	IC50 [nM]
COc1ccc(C#N)cc1-c1cc(C)ncc1C(=O)Nc1nc2c(s1)CN(S(=O)(=O)N1CCC1)C2	1 to 15
COc1ccc(C#N)cc1-c1cc(C)ncc1C(=O)Nc1nc2c(s1)CN(C(=O)[C@@H]1CC[C@@H]1C)C2	15 to 50
COc1ccc(C#N)cc1-c1cc(C)ncc1C(=O)Nc1nc2c(s1)CN(C(=O)[C@@H]1CC[C@H]1C)C2	1 to 15
COc1ccc(C#N)cc1-c1cc(C)ncc1C(=O)Nc1nc2c(s1)CN(S(=O)(=O)N1CCCC1)CC2	50 to 150
COc1ccc(C#N)cc1-c1cc(C)ncc1C(=O)Nc1nc2c(s1)CN(C(=O)c1cccnc1)CC2	150 to 900
COc1ccc(C#N)cc1-c1cc(C)ncc1C(=O)Nc1nc2c(s1)CN(S(=O)(=O)C1CCOC1)C2 (centres unmarked)	15 to 50
COc1ccc(C#N)cc1-c1cc(C)ncc1C(=O)Nc1nc2c(s1)CN(S(=O)(=O)C1CCCC1)CC2	150 to 900
CCNS(=O)(=O)N1CCc2nc(NC(=O)c3cnc(C)cc3-c3cc(C#N)ccc3OC)sc2C1	50 to 150
COc1ccc(C#N)cc1-c1cc(C)ncc1C(=O)Nc1nc2c(s1)CN(S(=O)(=O)C1(C)CC1)C2	15 to 50
COc1ccc(C#N)cc1-c1cc(C)ncc1C(=O)Nc1nc2c(s1)CN(C(=O)C1CCC1)C2	1 to 15
COc1ccc(C#N)cc1-c1cc(C)ncc1C(=O)Nc1nc2c(s1)CN(S(=O)(=O)C1CCC1)C2	50 to 150
COc1ccccc1-c1cc(C)ncc1C(=O)Nc1nc2c(s1)CN(S(=O)(=O)C1CCC1)C2	15 to 50
COc1ccc(C#N)cc1-c1cc(C)ncc1C(=O)Nc1nc2c(s1)CN(S(=O)(=O)c1cccnc1)C2	50 to 150
COc1ccccc1-c1cc(C)ncc1C(=O)Nc1nc2c(s1)CN(c1nccs1)C2	≥ 900
COc1ccccc1-c1cc(C)ncc1C(=O)Nc1nc2c(s1)CN(S(=O)(=O)NCC(C)C)C2	50 to 150
COc1ccc(C#N)cc1-c1cc(C)ncc1C(=O)Nc1nc2c(s1)CN(S(=O)(=O)C1CCOCC1)C2	50 to 150
CCNS(=O)(=O)N1Cc2nc(NC(=O)c3cnc(C)cc3-c3ccccc3OC)sc2C1	15 to 50
COc1ccccc1-c1cc(C)ncc1C(=O)Nc1nc2c(s1)CN(S(=O)(=O)N1CCOCC1)C2	15 to 50
COc1ccccc1-c1cc(C)ncc1C(=O)Nc1nc2c(s1)CN(S(=O)(=O)N1CCCC1)C2	50 to 150

SMILES	IC50 [nM]
COc1ccccc1-c1cc(C)ncc1C(=O)Nc1nc2c(s1)CC(Nc1ccccc1)CC2 (centres unmarked) [listing 1 of 3 here]	50 to 150
CNS(=O)(=O)N1Cc2nc(NC(=O)c3cnc(C)cc3-c3ccccc3OC)sc2C1	50 to 150
COc1ccccc1-c1cc(C)ncc1C(=O)Nc1nc2c(s1)CC(Nc1ccccc1)CC2 (centres unmarked) [listing 2 of 3 here]	50 to 150
COc1ccccc1-c1cc(C)ncc1C(=O)Nc1nc2c(s1)CC(c1ccc(Cl)cc1)CC2 (centres unmarked) [listing 1 of 2 here]	50 to 150
COc1ccccc1-c1cc(C)ncc1C(=O)Nc1nc2c(s1)CN(S(=O)(=O)N(C)C)C2	150 to 900
COC(=O)N1Cc2nc(NC(=O)c3cnc(C)cc3-c3ccccc3OC)sc2C1	150 to 900
COc1ccccc1-c1cc(C)ncc1C(=O)Nc1nc2c(s1)CC(c1ccc(Cl)cc1)CC2 (centres unmarked) [listing 2 of 2 here]	150 to 900
COc1ccccc1-c1cc(C)ncc1C(=O)Nc1nc2c(s1)CN(C(=O)N(C)C)C2	≥ 900
COc1ccccc1-c1cc(C)ncc1C(=O)Nc1nc2c(s1)CC(Oc1ccccc1)CC2 (centres unmarked)	≥ 900
COc1ccccc1-c1cc(C)ncc1C(=O)Nc1nc2c(s1)CN(C(=O)C1(C#N)CC1)C2	≥ 900
COc1ccccc1-c1cc(C)ncc1C(=O)Nc1nc2c(s1)C(=O)N(C1CC1)C2	≥ 900
COc1ccccc1-c1cc(C)ncc1C(=O)Nc1nc2c(s1)CCCC2	≥ 900
COc1ccccc1-c1cc(C)ncc1C(=O)Nc1nc2c(s1)CN(C(=O)C1CCCCC1)CC2	≥ 900
COc1ccccc1-c1cc(C)ncc1C(=O)Nc1nc2c(s1)CC(Nc1ccccc1)CC2 (centres unmarked) [listing 3 of 3 here]	≥ 900
COc1ccccc1-c1cc(C)ncc1C(=O)Nc1nc2c(s1)CNC2	≥ 900
CNC(=O)N1Cc2nc(NC(=O)c3cnc(C)cc3-c3ccccc3OC)sc2C1	≥ 900
COc1ccccc1-c1cc(C)ncc1C(=O)Nc1nc2c(s1)CN(C1CCCCC1)CC2	≥ 900
COc1ccccc1-c1cc(C)ncc1C(=O)Nc1nc2c(s1)COCC2	≥ 900
COc1ccccc1-c1cc(C)ncc1C(=O)Nc1nc2c(s1)CCN(C(=O)OC(C)(C)C)C2	≥ 900
